# Assay results as given in US20260166128A1, “HUMAN AMYLIN ANALOG, AND DERIVATIVE THEREOF AND USE THEREOF” (priority 2022, published 2026).
# Numbered stars: 1 amine (or outer) side, 2 acyl side, 3 side chain; on linkers, the order of the positions; unused ones are H or OH. Bridge positions count the residues as written; N and C are the ends. Square brackets hold non-standard residues; d marks the D form. Side chains are listed from the residue outwards. Peptide text beside a SMILES is read from it. * marks the point of attachment. C20 diacid = O=C(O)CCCCCCCCCCCCCCCCCCC(=O)*; C18 diacid = O=C(O)CCCCCCCCCCCCCCCCC(=O)*; γGlu = O=C(O)[C@H](CCC(=O)[*:2])N[*:1]; Hyp = O=C(O)[C@@H]1C[C@@H](O)CN1; AEEA = NCCOCCOCC(=O)O
# Biological target: T1, human amylin receptor (Homo sapiens, UniProt O60896+P30988)
# T1 construct: host or cells: CHO-K1/Ga15/AMY3 cells, further stably transfected with a CRE-luciferase plasmid
# T1 sequence (P30988 25-474): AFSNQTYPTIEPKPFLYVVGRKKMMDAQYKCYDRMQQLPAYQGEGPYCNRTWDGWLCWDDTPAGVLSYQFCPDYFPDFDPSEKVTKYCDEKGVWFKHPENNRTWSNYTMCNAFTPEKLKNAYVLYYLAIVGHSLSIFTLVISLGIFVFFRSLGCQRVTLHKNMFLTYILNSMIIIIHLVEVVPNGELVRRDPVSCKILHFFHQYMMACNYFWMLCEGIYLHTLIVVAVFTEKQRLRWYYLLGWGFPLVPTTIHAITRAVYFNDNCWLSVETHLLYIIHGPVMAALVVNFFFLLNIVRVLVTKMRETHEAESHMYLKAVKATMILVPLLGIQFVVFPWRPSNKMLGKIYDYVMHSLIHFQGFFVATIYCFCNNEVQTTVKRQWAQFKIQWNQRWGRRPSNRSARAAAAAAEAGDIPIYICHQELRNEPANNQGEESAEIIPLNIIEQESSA
# T1 sequence (O60896 24-148 partner): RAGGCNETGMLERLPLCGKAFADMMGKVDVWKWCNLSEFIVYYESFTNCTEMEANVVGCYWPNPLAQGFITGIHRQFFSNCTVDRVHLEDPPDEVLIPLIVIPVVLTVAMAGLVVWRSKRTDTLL
# Test: Luciferase assay of amylin derivatives in amylin receptor/CRE-luc CHO cell line
# Type: cell-based
# Conditions: CHO-K1/Ga15/AMY3 CRE-luc cells, 24 hours incubation, F12 medium containing 10% FBS; read-out: EC50
# Description: The experiment was intended to detect the activity or efficacy of the amylin derivatives on a human amylin receptor in vitro by luciferase assay.
# 50 μL of growth medium (F12 medium containing 10% FBS) was added into each well of a white 96-well plate, and the stably transfected amylin/CRE-lue CHO cells were inoculated into the white 96-well plate at a density of about 20,000 cells/well for activity determination.
row,SMILES,EC50 [nM]
1,CC[C@H](C)[C@H](NC(=O)[C@@H]1CCCN1C(=O)CNC(=O)[C@H](CC(C)C)NC(=O)[C@H](CC(N)=O)NC(=O)[C@H](CCCCNC(=O)COCCOCCNC(=O)CC[C@H](NC(=O)CCCCCCCCCCCCCCCCC(=O)O)C(=O)O)NC(=O)[C@H](CO)NC(=O)[C@H](CO)NC(=O)[C@H](Cc1c[nH]cn1)NC(=O)[C@H](CCCNC(=N)N)NC(=O)[C@H](CC(C)C)NC(=O)[C@H](Cc1ccccc1)NC(=O)[C@H](CC(=O)O)NC(=O)[C@H](C)NC(=O)[C@H](CC(C)C)NC(=O)[C@H](CCCNC(=N)N)NC(=O)[C@H](CCC(N)=O)NC(=O)[C@@H](NC(=O)[C@H](C)NC(=O)[C@@H]1CSSC[C@H](NC(=O)[C@@H](N)CCCNC(=N)N)C(=O)N[C@@H](CC(N)=O)C(=O)N[C@@H]([C@@H](C)O)C(=O)N[C@@H](C)C(=O)N[C@@H]([C@@H](C)O)C(=O)N1)[C@@H](C)O)C(=O)N[C@@H](CC(C)C)C(=O)N1CCC[C@H]1C(=O)N1CCC[C@H]1C(=O)N[C@H](C(=O)N[C@@H](CC(N)=O)C(=O)N[C@H](C(=O)NCC(=O)N[C@@H](CO)C(=O)N[C@@H](CC(N)=O)C(=O)N[C@H](C(=O)N1C[C@H](O)C[C@H]1C(N)=O)[C@@H](C)O)C(C)C)[C@@H](C)O [PD115] (H-RCNTATCATQRLADFLRHSSK([AEEA-γGlu-C18 diacid])NLGPILPPTNVGSNT[Hyp]-NH2; disulfide 2-7),0.011
2,CC[C@H](C)[C@H](NC(=O)[C@@H]1CCCN1C(=O)CNC(=O)[C@H](CC(C)C)NC(=O)[C@H](CC(N)=O)NC(=O)[C@H](CC(N)=O)NC(=O)[C@H](CCCCNC(=O)COCCOCCNC(=O)CC[C@H](NC(=O)CCCCCCCCCCCCCCCCCCC(=O)O)C(=O)O)NC(=O)[C@H](CO)NC(=O)[C@H](Cc1c[nH]cn1)NC(=O)[C@H](CCCNC(=N)N)NC(=O)[C@H](CC(C)C)NC(=O)[C@H](Cc1ccccc1)NC(=O)[C@H](CC(=O)O)NC(=O)[C@H](C)NC(=O)[C@H](CC(C)C)NC(=O)[C@H](CCCNC(=N)N)NC(=O)[C@H](CCC(N)=O)NC(=O)[C@@H](NC(=O)[C@H](C)NC(=O)[C@@H]1CSSC[C@H](NC(=O)[C@@H](N)CCCNC(=N)N)C(=O)N[C@@H](CC(N)=O)C(=O)N[C@@H]([C@@H](C)O)C(=O)N[C@@H](C)C(=O)N[C@@H]([C@@H](C)O)C(=O)N1)[C@@H](C)O)C(=O)N[C@@H](CC(C)C)C(=O)N1CCC[C@H]1C(=O)N1CCC[C@H]1C(=O)N[C@H](C(=O)N[C@@H](CC(N)=O)C(=O)N[C@H](C(=O)NCC(=O)N[C@@H](CO)C(=O)N[C@@H](CC(N)=O)C(=O)N[C@H](C(=O)N1C[C@H](O)C[C@H]1C(N)=O)[C@@H](C)O)C(C)C)[C@@H](C)O [PD116] (H-RCNTATCATQRLADFLRHSK([AEEA-γGlu-C20 diacid])NNLGPILPPTNVGSNT[Hyp]-NH2; disulfide 2-7),0.033
3,CC[C@H](C)[C@H](NC(=O)[C@@H]1CCCN1C(=O)CNC(=O)[C@H](CC(C)C)NC(=O)[C@H](CC(N)=O)NC(=O)[C@H](CC(N)=O)NC(=O)[C@H](CO)NC(=O)[C@H](CCCCNC(=O)COCCOCCNC(=O)CC[C@H](NC(=O)CCCCCCCCCCCCCCCCCCC(=O)O)C(=O)O)NC(=O)[C@H](Cc1c[nH]cn1)NC(=O)[C@H](CCCNC(=N)N)NC(=O)[C@H](CC(C)C)NC(=O)[C@H](Cc1ccccc1)NC(=O)[C@H](CC(=O)O)NC(=O)[C@H](C)NC(=O)[C@H](CC(C)C)NC(=O)[C@H](CCCNC(=N)N)NC(=O)[C@H](CCC(N)=O)NC(=O)[C@@H](NC(=O)[C@H](C)NC(=O)[C@@H]1CSSC[C@H](NC(=O)[C@@H](N)CCCNC(=N)N)C(=O)N[C@@H](CC(N)=O)C(=O)N[C@@H]([C@@H](C)O)C(=O)N[C@@H](C)C(=O)N[C@@H]([C@@H](C)O)C(=O)N1)[C@@H](C)O)C(=O)N[C@@H](CC(C)C)C(=O)N1CCC[C@H]1C(=O)N1CCC[C@H]1C(=O)N[C@H](C(=O)N[C@@H](CC(N)=O)C(=O)N[C@H](C(=O)NCC(=O)N[C@@H](CO)C(=O)N[C@@H](CC(N)=O)C(=O)N[C@H](C(=O)N1C[C@H](O)C[C@H]1C(N)=O)[C@@H](C)O)C(C)C)[C@@H](C)O [PD118] (H-RCNTATCATQRLADFLRHK([AEEA-γGlu-C20 diacid])SNNLGPILPPTNVGSNT[Hyp]-NH2; disulfide 2-7),0.032
4,CC[C@H](C)[C@H](NC(=O)[C@H](CCCCNC(=O)COCCOCCNC(=O)CC[C@H](NC(=O)CCCCCCCCCCCCCCCCC(=O)O)C(=O)O)NC(=O)CNC(=O)[C@H](CC(C)C)NC(=O)[C@H](CC(N)=O)NC(=O)[C@H](CC(N)=O)NC(=O)[C@H](CO)NC(=O)[C@H](CO)NC(=O)[C@H](Cc1c[nH]cn1)NC(=O)[C@H](CCCNC(=N)N)NC(=O)[C@H](CC(C)C)NC(=O)[C@H](Cc1ccccc1)NC(=O)[C@H](CC(=O)O)NC(=O)[C@H](C)NC(=O)[C@H](CC(C)C)NC(=O)[C@H](CCCNC(=N)N)NC(=O)[C@H](CCC(N)=O)NC(=O)[C@@H](NC(=O)[C@H](C)NC(=O)[C@@H]1CSSC[C@H](NC(=O)[C@@H](N)CCCNC(=N)N)C(=O)N[C@@H](CC(N)=O)C(=O)N[C@@H]([C@@H](C)O)C(=O)N[C@@H](C)C(=O)N[C@@H]([C@@H](C)O)C(=O)N1)[C@@H](C)O)C(=O)N[C@@H](CC(C)C)C(=O)N1CCC[C@H]1C(=O)N1CCC[C@H]1C(=O)N[C@H](C(=O)N[C@@H](CC(N)=O)C(=O)N[C@H](C(=O)NCC(=O)N[C@@H](CO)C(=O)N[C@@H](CC(N)=O)C(=O)N[C@H](C(=O)N1C[C@H](O)C[C@H]1C(N)=O)[C@@H](C)O)C(C)C)[C@@H](C)O [PD121] (H-RCNTATCATQRLADFLRHSSNNLGK([AEEA-γGlu-C18 diacid])ILPPTNVGSNT[Hyp]-NH2; disulfide 2-7),0.018
5,CC[C@H](C)[C@H](NC(=O)[C@@H]1CCCN1C(=O)CNC(=O)[C@H](CC(C)C)NC(=O)[C@H](CC(N)=O)NC(=O)[C@H](CC(N)=O)NC(=O)[C@H](CO)NC(=O)[C@H](CO)NC(=O)[C@H](Cc1c[nH]cn1)NC(=O)[C@H](CCCNC(=N)N)NC(=O)[C@H](CC(C)C)NC(=O)[C@H](Cc1ccccc1)NC(=O)[C@H](CC(=O)O)NC(=O)[C@H](C)NC(=O)[C@H](CC(C)C)NC(=O)[C@H](CCCNC(=N)N)NC(=O)[C@H](CCC(N)=O)NC(=O)[C@@H](NC(=O)[C@H](C)NC(=O)[C@@H]1CSSC[C@H](NC(=O)[C@H](CCCCN)NC(=O)COCCOCCNC(=O)CC[C@H](NC(=O)CCCCCCCCCCCCCCCCCCC(=O)O)C(=O)O)C(=O)N[C@@H](CC(N)=O)C(=O)N[C@@H]([C@@H](C)O)C(=O)N[C@@H](C)C(=O)N[C@@H]([C@@H](C)O)C(=O)N1)[C@@H](C)O)C(=O)N[C@@H](CC(C)C)C(=O)N1CCC[C@H]1C(=O)N1CCC[C@H]1C(=O)N[C@H](C(=O)N[C@@H](CC(N)=O)C(=O)N[C@H](C(=O)NCC(=O)N[C@@H](CO)C(=O)N[C@@H](CC(N)=O)C(=O)N[C@H](C(=O)N1C[C@H](O)C[C@H]1C(N)=O)[C@@H](C)O)C(C)C)[C@@H](C)O [PD122] ({C20 diacid-γGlu-AEEA}-KCNTATCATQRLADFLRHSSNNLGPILPPTNVGSNT[Hyp]-NH2; disulfide 2-7),0.048
6,CC[C@H](C)[C@H](NC(=O)[C@@H]1CCCN1C(=O)CNC(=O)[C@H](CC(C)C)NC(=O)[C@H](CC(N)=O)NC(=O)[C@H](CC(N)=O)NC(=O)[C@H](CO)NC(=O)[C@H](CO)NC(=O)[C@H](Cc1c[nH]cn1)NC(=O)[C@H](CCCNC(=N)N)NC(=O)[C@H](CC(C)C)NC(=O)[C@H](Cc1ccccc1)NC(=O)[C@H](CC(=O)O)NC(=O)[C@H](C)NC(=O)[C@H](CC(C)C)NC(=O)[C@H](CCCNC(=N)N)NC(=O)[C@H](CCC(N)=O)NC(=O)[C@@H](NC(=O)[C@H](C)NC(=O)[C@@H]1CSSC[C@H](NC(=O)[C@H](CCCCN)NC(=O)CC[C@H](NC(=O)CCCCCCCCCCCCCCCCC(=O)O)C(=O)O)C(=O)N[C@@H](CC(N)=O)C(=O)N[C@@H]([C@@H](C)O)C(=O)N[C@@H](C)C(=O)N[C@@H]([C@@H](C)O)C(=O)N1)[C@@H](C)O)C(=O)N[C@@H](CC(C)C)C(=O)N1CCC[C@H]1C(=O)N1CCC[C@H]1C(=O)N[C@H](C(=O)N[C@@H](CC(N)=O)C(=O)N[C@H](C(=O)NCC(=O)N[C@@H](CO)C(=O)N[C@@H](CC(N)=O)C(=O)N[C@H](C(=O)N1C[C@H](O)C[C@H]1C(N)=O)[C@@H](C)O)C(C)C)[C@@H](C)O [PD124] ({C18 diacid-γGlu}-KCNTATCATQRLADFLRHSSNNLGPILPPTNVGSNT[Hyp]-NH2; disulfide 2-7),0.008
7,CC[C@H](C)[C@H](NC(=O)[C@@H]1CCCN1C(=O)CNC(=O)[C@H](Cc1ccccc1)NC(=O)[C@H](CC(N)=O)NC(=O)[C@H](CC(N)=O)NC(=O)[C@H](CO)NC(=O)[C@H](CO)NC(=O)[C@H](Cc1c[nH]cn1)NC(=O)[C@@H](NC(=O)[C@H](CC(C)C)NC(=O)[C@H](Cc1ccccc1)NC(=O)[C@H](CC(N)=O)NC(=O)[C@H](C)NC(=O)[C@H](CC(C)C)NC(=O)[C@H](CCCNC(=N)N)NC(=O)[C@H](CCC(N)=O)NC(=O)[C@@H](NC(=O)[C@H](C)NC(=O)[C@@H]1CSSC[C@H](NC(=O)[C@H](CCCCN)NC(=O)CC[C@H](NC(=O)CCCCCCCCCCCCCCCCCCC(=O)O)C(=O)O)C(=O)N[C@@H](CC(N)=O)C(=O)N[C@@H]([C@@H](C)O)C(=O)N[C@@H](C)C(=O)N[C@@H]([C@@H](C)O)C(=O)N1)[C@@H](C)O)C(C)C)C(=O)N[C@@H](CC(C)C)C(=O)N1CCC[C@H]1C(=O)N1CCC[C@H]1C(=O)N[C@H](C(=O)N[C@@H](CC(N)=O)C(=O)N[C@H](C(=O)NCC(=O)N[C@@H](CO)C(=O)N[C@@H](CC(N)=O)C(=O)N[C@H](C(=O)N[C@@H](Cc1ccc(O)cc1)C(N)=O)[C@@H](C)O)C(C)C)[C@@H](C)O [PD156] ({C20 diacid-γGlu}-KCNTATCATQRLANFLVHSSNNFGPILPPTNVGSNTY-NH2; disulfide 2-7 (inferred)),0.029
